Source: ChEMBL document CHEMBL1201862, “PubChem BioAssay data set” (2004)
Active and inactive are the calls of the source.

Legend:
[1] = test system: Streptococcus sp. 'group A'; assay: Streptococcus pyogenes SK(-)GAS viability under kanamycin – luminescence, BacTiterGlo, confirmation, counter-screen for streptokinase expression inhibitor project, dose response (AID 1900); format: functional, organism-based
Streptokinase A = target: T1, Streptokinase A (Streptococcus pyogenes serotype M1, UniProt P10520); assay: viability-normalized secreted streptokinase activity reduction – plasminogen activation absorbance, OD405, dose response (AID 1914); format: functional, Streptococcus pyogenes M1 GAS;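 note: secreted streptokinase activity via plasminogen activation per viability signal from cell pellet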
T1 sequence (P10520 whole entry): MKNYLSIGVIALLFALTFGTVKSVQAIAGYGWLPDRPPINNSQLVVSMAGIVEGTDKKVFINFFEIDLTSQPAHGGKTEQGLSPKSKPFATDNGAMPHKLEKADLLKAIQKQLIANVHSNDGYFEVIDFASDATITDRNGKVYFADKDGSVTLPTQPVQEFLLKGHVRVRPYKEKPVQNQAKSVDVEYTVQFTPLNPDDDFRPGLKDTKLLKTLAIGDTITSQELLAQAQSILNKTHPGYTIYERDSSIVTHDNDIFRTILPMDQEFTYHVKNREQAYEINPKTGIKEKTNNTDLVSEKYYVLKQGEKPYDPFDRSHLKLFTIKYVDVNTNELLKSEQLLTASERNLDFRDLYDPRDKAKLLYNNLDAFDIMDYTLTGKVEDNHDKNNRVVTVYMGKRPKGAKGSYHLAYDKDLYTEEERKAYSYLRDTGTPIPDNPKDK

Streptococcus = assay: GAS UMAA2166 growth inhibition – luminescence, BacTiterGlo, counter-screen for streptokinase expression inhibitor project, dose response (AID 1915); format: functional, organism-based;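 note: potency for reduction of bacterial viability or growth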
Vero = assay: viability of Vero cells under compound – cytotoxicity control for flavivirus capping enzyme inhibitors (AID 588742); format: functional; conditions: Chlorocebus sabaeus
Genome polyprotein = Genome polyprotein (dengue virus type 2, UniProt P29990); assay: flavivirus cap methylation enzyme inhibition – biochemical, confirmation dose response, primary screen (AID 588689); format: functional
Chain of Genome polyprotein (P29990 2492-3391 limits assumed): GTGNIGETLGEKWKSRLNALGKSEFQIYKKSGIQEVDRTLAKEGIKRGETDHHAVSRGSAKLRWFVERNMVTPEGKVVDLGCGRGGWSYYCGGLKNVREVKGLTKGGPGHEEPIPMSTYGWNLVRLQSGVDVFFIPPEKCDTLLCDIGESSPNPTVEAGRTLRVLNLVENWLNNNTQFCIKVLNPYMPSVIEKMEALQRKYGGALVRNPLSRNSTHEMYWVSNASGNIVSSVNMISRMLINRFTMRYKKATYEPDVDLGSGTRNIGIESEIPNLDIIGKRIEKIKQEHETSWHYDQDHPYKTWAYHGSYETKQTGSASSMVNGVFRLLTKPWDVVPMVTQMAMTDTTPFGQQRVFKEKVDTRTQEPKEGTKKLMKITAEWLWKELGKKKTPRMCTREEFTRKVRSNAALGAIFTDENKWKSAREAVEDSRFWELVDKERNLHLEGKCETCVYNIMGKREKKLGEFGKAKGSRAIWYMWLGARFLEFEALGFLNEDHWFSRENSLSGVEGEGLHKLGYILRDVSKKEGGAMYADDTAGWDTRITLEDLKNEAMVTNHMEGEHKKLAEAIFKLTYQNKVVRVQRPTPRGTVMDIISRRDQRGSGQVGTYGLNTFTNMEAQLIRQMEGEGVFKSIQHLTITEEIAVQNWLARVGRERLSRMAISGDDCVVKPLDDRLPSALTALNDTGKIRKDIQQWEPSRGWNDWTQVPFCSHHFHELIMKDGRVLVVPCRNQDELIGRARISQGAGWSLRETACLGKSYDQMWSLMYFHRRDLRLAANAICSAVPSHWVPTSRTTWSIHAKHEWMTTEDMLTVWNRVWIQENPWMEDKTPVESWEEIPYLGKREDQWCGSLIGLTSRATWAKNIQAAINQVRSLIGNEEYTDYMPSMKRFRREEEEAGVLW

[2] = bead-based luminescence quenchers, dual-tagged ARNT – biochemical, AlphaScreen, cherry-pick, artefact control for ARNT-TACC3 interaction inhibitor project, dose response (AID 651705); format: functional;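 note: AlphaScreen bead proximity signal that flags compounds interfering with the detection technology; potency reflects signal decrease which marks the compound as an assay artifact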
[3] = inhibition of ARNT PAS-B/TACC3 complex formation – biochemical, AlphaScreen, cherry-picked samples, confirmation (AID 651703); format: functional, Homo sapiens;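 note: His-tagged ARNT PAS-B domain paired with GST-TACC3 E629A dimer coactivator fragment; potency of inhibitors that break up the complex and lower AlphaScreen signal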
[4] = target: DNA dC->dU-editing enzyme APOBEC-3A (Homo sapiens, UniProt P31941); assay: A3A deaminase inhibition for selectivity – biochemical, dose response (AID 504722); format: functional
Chain of DNA dC->dU-editing enzyme APOBEC-3A (P31941 whole entry): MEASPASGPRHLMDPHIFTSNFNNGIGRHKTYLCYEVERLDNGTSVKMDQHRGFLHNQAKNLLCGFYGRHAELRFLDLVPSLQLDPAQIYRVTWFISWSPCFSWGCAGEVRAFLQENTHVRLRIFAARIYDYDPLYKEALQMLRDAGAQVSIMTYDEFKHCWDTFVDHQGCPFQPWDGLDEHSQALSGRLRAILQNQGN

[5] = target: DNA dC->dU-editing enzyme APOBEC-3G (Homo sapiens, UniProt Q9HC16); assay: Dose Response confirmation of small molecule APOBEC3G DNA Deaminase Inhibitors via a fluorescence-based single-stranded DNA deaminase assay. [Related pubchem assays (depositor defined):AID493012, AID493028]; format: functional
Chain of DNA dC->dU-editing enzyme APOBEC-3G (Q9HC16 whole entry): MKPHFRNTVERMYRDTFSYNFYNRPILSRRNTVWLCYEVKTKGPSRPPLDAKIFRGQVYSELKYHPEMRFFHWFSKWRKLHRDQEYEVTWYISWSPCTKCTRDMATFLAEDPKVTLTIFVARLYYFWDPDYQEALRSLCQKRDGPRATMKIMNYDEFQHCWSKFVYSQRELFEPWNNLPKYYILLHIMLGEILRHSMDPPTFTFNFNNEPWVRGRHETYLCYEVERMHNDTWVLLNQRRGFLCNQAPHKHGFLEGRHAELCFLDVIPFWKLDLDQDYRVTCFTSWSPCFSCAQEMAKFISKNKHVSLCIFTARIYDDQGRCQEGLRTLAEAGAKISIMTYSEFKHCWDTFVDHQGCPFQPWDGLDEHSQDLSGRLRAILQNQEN

[6] = target: T2, Tyrosine-protein phosphatase non-receptor type 11 (Homo sapiens, UniProt Q06124); assay: PTPN11 enzyme inhibitors – biochemical, selectivity assay for STEP inhibitor project, dose response (AID 602367); format: functional; conditions: read-out: IC50_Mean
T2 sequence (Q06124 whole entry): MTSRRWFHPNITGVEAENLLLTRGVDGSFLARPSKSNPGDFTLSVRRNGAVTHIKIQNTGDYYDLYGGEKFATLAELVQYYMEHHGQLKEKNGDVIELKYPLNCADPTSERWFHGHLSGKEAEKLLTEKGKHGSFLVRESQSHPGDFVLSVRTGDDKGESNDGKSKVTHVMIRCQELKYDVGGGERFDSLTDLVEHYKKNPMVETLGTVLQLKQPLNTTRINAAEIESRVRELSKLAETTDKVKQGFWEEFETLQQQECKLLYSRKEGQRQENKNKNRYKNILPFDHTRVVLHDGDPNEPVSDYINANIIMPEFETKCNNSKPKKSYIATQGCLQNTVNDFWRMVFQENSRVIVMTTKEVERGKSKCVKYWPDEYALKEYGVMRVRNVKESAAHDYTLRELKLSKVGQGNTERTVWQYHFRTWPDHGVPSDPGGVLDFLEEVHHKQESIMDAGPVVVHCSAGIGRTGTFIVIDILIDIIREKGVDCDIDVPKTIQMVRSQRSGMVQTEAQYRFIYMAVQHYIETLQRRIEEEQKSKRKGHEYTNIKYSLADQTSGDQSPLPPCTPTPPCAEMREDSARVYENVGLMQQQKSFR

[7] = target: T3, Tyrosine-protein phosphatase non-receptor type 5 (Homo sapiens, UniProt P54829); assay: PTPN5 enzyme inhibition – biochemical, fluorescence intensity, uHTS hits, confirmation (AID 602372); format: functional; conditions: read-out: IC50_Mean
T3 sequence (P54829 whole entry): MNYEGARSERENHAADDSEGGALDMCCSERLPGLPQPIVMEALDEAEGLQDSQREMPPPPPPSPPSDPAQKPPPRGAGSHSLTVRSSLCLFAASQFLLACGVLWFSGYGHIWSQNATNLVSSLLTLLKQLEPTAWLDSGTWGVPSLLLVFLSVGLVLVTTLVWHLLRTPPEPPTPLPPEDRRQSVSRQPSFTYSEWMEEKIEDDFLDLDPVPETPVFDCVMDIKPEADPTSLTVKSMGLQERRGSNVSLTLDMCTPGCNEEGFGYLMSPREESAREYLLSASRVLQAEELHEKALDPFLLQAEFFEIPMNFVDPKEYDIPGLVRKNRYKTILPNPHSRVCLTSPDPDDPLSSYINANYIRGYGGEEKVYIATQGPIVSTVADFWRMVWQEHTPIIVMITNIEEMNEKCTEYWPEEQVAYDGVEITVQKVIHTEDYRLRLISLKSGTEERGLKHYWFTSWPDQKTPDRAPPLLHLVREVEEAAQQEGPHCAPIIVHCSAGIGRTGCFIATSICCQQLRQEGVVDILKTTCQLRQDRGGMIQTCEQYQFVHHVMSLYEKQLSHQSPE

[8] = target: Dual specificity protein phosphatase 3 (Homo sapiens, UniProt P51452); assay: VHR phosphatase inhibition, dose response, selectivity assay for STEP inhibitor project, biochemical (AID 602374); format: functional; conditions: read-out: IC50_Mean
Chain of Dual specificity protein phosphatase 3 (P51452 whole entry): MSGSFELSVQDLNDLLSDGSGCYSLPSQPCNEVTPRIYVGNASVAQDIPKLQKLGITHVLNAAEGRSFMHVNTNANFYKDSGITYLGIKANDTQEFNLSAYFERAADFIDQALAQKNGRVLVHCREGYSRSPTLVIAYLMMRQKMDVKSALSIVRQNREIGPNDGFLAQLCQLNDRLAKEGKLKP

[9] = target: T4, Tyrosine-protein phosphatase non-receptor type 22 (Homo sapiens, UniProt Q9Y2R2); assay: lymphoid phosphatase LYP inhibitors – biochemical, selectivity assay for STEP inhibitor project, dose response (AID 624241); format: functional
T4 sequence (Q9Y2R2 whole entry): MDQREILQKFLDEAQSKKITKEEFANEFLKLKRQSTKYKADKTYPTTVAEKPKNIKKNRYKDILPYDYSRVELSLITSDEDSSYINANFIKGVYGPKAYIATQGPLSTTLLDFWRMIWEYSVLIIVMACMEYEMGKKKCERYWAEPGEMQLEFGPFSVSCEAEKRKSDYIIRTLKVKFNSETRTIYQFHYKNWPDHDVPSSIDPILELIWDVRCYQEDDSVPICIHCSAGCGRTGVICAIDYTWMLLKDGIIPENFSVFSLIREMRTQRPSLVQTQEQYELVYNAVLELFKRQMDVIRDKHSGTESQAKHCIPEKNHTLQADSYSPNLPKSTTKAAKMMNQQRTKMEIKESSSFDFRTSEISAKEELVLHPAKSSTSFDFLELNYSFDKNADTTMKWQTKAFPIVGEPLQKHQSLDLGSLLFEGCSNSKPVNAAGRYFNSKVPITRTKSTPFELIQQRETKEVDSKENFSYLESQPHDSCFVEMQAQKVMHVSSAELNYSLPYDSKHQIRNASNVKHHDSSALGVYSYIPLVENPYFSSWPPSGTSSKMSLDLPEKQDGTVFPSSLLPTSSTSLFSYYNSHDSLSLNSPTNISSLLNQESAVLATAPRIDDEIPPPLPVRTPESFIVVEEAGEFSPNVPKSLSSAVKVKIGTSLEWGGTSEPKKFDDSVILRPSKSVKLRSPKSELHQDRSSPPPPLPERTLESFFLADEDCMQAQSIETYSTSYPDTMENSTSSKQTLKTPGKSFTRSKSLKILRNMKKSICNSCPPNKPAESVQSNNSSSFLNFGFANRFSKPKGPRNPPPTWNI

[10] = target: T5, RNA-binding protein pos-1 (Caenorhabditis elegans, UniProt G5EF15); assay: disruptors of C. elegans POS-1 RNA interaction – biochemical, fluorescence polarization, dose response (AID 1964);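 note: purified POS-1 fused to maltose binding protein made in E. coli; potency of compounds blocking POS-1 binding to fluorescent RNA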
T5 sequence (G5EF15 whole entry): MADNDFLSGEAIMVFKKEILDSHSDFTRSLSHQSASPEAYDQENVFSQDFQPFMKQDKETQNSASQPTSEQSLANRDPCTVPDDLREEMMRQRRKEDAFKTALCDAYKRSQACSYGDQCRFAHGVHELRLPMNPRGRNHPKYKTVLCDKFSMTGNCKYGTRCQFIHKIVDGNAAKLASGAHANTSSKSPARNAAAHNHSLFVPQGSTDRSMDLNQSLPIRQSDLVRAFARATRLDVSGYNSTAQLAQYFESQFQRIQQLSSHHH

[11] = target: T6, Zinc finger protein mex-5 (Caenorhabditis elegans, UniProt Q9XUB2); assay: potency of MEX-5 RNA-binding blockers – biochemical, C. elegans, fluorescence polarization, dose response (AID 1960)
T6 sequence (Q9XUB2 whole entry): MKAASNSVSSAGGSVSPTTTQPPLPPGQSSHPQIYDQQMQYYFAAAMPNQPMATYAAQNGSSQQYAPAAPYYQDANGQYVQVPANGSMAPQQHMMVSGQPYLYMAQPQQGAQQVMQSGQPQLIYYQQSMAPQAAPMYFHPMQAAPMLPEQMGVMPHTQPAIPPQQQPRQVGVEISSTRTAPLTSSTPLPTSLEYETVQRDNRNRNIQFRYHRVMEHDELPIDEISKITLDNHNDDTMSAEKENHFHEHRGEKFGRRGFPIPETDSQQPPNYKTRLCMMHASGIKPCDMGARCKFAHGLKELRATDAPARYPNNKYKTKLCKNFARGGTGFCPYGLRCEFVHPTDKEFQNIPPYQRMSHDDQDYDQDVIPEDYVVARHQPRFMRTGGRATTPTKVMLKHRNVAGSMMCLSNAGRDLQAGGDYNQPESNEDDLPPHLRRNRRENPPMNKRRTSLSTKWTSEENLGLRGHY

[12] = target: T7, Sentrin-specific protease 1 (Homo sapiens, UniProt Q9P0U3); assay: SENP1 catalytic domain blockers, concentration series – biochemical, kinetic FRET, dose response (AID 651697); format: functional; conditions: read-out: IC50_Mean
T7 sequence (Q9P0U3 whole entry, the tested form may be a part): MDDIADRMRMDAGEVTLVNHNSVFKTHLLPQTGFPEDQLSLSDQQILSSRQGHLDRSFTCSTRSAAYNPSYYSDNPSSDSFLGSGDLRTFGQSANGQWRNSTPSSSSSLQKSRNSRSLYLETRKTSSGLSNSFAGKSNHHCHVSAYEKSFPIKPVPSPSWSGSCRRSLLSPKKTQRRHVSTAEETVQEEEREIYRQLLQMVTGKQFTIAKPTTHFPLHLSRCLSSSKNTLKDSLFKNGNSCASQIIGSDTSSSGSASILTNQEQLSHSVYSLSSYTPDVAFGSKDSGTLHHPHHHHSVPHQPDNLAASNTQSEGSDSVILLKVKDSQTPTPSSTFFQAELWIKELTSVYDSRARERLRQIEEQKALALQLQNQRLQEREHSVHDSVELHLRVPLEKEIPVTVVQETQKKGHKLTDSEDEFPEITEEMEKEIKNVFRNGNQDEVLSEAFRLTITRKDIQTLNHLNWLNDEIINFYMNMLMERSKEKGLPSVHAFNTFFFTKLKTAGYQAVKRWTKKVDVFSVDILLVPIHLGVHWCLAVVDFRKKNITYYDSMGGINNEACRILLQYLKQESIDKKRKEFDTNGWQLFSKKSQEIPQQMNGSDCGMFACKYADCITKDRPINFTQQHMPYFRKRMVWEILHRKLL

[13] = target: T7, Sentrin-specific protease 1; assay: Dose response confirmation of small molecule inhibitors of the catalytic domain of the SUMO protease, SENP1 in a FRET assay.; format: functional; conditions: read-out: IC50_Mean
[14] = target: T8, Rac GTPase-activating protein 1 (Homo sapiens, UniProt Q9H0H5); assay: blockers of MgcRacGAP-driven Rac1 GTP hydrolysis – biochemical, ADP Hunter fluorescence, primary and confirmatory, confirmation (AID 624330); format: functional
T8 sequence (Q9H0H5 whole entry): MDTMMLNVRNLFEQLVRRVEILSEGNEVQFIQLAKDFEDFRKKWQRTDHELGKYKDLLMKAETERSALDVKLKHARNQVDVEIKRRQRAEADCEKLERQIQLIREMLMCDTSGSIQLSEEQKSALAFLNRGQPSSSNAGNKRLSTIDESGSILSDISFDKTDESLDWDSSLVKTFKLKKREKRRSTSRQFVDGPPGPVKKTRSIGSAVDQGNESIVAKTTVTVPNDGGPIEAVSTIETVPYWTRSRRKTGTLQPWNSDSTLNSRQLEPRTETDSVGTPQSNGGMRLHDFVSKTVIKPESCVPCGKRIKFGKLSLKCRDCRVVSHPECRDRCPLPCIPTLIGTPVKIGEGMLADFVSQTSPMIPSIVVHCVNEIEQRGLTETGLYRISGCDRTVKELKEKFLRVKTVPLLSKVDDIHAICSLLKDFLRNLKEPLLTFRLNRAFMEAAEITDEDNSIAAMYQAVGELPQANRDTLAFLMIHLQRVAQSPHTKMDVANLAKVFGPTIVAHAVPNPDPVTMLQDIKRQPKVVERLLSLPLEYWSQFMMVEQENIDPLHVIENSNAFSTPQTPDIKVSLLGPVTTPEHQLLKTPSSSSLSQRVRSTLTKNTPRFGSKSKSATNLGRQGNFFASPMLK

[15] = target: T9, Low molecular weight phosphotyrosine protein phosphatase (Homo sapiens, UniProt P24666); format: functional; conditions: read-out: IC50_Mean
T9 sequence (P24666 whole entry): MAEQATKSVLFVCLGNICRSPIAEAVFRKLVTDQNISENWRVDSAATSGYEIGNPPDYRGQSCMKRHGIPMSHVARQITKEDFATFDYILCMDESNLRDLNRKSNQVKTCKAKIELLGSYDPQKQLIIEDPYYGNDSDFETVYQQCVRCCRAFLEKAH

[16] = target: T9, Low molecular weight phosphotyrosine protein phosphatase; format: functional; conditions: read-out: IC50_Mean; remark: listed apart in the source
[17] = target: T10, ATP-dependent translocase ABCB1 (Homo sapiens, UniProt P08183); assay: inhibition of BCRP-mediated JC-1 efflux – Ig-MXP3 cells, flow cytometry, set 2, dose response (AID 504566); format: functional; conditions: read-out: EC50_MICROM_;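 note: flow cytometry median green fluorescence of retained JC-1 dye; potency of efflux pump inhibition measured as rising substrate retention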
T10 sequence (P08183 whole entry): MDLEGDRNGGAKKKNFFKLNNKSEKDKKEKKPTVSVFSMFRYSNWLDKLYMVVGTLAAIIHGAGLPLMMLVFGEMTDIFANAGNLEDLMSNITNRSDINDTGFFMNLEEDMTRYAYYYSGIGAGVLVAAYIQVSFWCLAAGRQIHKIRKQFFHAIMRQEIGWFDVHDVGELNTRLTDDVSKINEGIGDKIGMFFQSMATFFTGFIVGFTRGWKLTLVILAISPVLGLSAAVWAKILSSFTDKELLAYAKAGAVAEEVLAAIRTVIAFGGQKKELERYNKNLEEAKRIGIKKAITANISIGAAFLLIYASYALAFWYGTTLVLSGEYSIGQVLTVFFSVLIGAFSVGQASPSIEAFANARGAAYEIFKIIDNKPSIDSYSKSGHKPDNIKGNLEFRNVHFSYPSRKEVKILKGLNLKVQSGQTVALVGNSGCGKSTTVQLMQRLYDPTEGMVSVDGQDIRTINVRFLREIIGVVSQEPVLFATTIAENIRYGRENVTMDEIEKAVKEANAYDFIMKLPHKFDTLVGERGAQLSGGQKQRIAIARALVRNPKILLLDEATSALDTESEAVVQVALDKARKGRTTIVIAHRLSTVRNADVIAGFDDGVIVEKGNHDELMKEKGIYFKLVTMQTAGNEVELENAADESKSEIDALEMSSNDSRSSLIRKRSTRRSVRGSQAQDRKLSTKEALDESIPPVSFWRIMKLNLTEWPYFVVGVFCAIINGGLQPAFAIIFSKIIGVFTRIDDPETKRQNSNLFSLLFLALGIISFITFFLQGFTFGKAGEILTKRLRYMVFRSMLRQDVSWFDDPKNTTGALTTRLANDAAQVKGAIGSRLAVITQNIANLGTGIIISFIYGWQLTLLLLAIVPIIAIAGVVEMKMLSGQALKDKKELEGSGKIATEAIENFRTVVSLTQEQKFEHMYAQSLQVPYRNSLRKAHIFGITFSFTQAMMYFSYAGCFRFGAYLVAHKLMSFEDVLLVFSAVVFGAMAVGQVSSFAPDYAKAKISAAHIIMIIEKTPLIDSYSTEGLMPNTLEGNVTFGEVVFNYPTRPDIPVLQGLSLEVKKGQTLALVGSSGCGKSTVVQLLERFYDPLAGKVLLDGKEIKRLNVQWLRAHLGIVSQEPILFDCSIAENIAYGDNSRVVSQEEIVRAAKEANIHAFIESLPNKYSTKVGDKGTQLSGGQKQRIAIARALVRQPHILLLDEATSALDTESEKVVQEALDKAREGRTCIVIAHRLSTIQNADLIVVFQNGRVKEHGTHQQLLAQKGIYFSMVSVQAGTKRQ

[18] = target: T10, ATP-dependent translocase ABCB1; assay: P-gp JC-1 efflux blockade concentration-response – Jurkat-DNR cells, flow cytometry, set 2, dose response (AID 504569); format: functional; conditions: read-out: EC50_MICROM_;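 note: potency of pump inhibitors that raise cellular JC-1 green fluorescence up to the nicardipine level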

Compound: COc1cccc(-c2coc3c(C)c4oc(=O)c(CCC(=O)O)c(C)c4cc23)c1
- EC50 [1]: 2.4 µM (active)
- EC50 (Streptokinase A): > 150 µM (not active)
- EC50 (Streptococcus): 13.4 µM (active)
- CC50 (Vero): > 40 µM (active)
- IC50 (Genome polyprotein): 40.5 µM (active)
- AC50 [2]: 98 µM (active)
- AC50 [3]: 130 µM (active)

Compound: CCN1CCN(C(=S)c2ccc(Cl)cc2)CC1
- IC50 [4]: > 100 µM (inactive)
- IC50 [5]: 5.06 µM (active)
- IC50 [6]: 0.318 µM (active)
- IC50 [7]: 8.91 µM (active)
- IC50 [8]: 341 nM (active)
- IC50 [9]: 12.8 µM (active)

Compound: CC1(C)CC2=Nc3ccccc3SC2=C(O)C1
- EC50 [10]: 43.9 µM (active)
- EC50 [11]: 59.3 µM (active)
- IC50 [12]: 29 µM (inactive)
- IC50 [13]: 42.4 µM (inactive)
- IC50 [14]: 22.1 µM (active)

Compound: O=C(N/N=C/c1cccc([N+](=O)[O-])c1)c1ccc(Br)cc1
- IC50 [6]: 6.62 µM (active)
- IC50 [7]: 8.16 µM (active)
- IC50 [8]: 5030 nM (active)
- IC50 [15]: 15.1 µM (active)
- IC50 [16]: 22.8 µM (inactive)

Compound: O=C(c1ccccc1Cl)N1CCN(c2cc(-c3ccccc3)nc3cc(-c4cccc(Cl)c4)nn23)CC1
- EC50 [17]: 1.15 µM (active)
- EC50 [18]: 1.07 µM (active)
